For test [1], the target named is T1, human calcitonin receptor (hCTR) (Homo sapiens, UniProt P30988).
T1 construct: expressed in transfected cells
T1 sequence (P30988 25-474): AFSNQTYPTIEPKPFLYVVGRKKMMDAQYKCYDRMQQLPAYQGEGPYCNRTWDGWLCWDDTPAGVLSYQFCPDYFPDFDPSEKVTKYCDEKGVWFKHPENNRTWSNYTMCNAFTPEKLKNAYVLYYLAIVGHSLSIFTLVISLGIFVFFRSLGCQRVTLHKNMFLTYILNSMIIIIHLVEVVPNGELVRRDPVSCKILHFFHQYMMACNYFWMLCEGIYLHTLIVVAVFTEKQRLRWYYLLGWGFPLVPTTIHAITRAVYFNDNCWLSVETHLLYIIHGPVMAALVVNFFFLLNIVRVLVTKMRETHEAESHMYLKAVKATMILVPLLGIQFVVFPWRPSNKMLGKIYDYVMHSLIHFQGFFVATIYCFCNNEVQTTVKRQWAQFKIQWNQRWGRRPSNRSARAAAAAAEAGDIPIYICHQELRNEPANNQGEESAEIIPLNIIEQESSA
The experiment in a line: cAMP production in 1321N1 cells with stable recombinant expression of human calcitonin receptor (hCTR). It is filed as cell-based. As to conditions: cAMP, 1321N1 cells, assay buffer with 0.1% BSA; read-out: EC50 (pM) hCTR. Summed up: (§1)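 Thawed cells in HBSS/0.1% BSA/25 mM HEPES pH 7.4 with 0.5 mM IBMX were incubated with peptides 30 min at room temperature; cAMP read by HTRF. EC50 from 4-parameter fit of % activation relative to maximal amylin or calcitonin effect.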
Background: Cyclic AMP is a second messenger, typically raised through Gs and lowered through Gi signalling.

Test [2] concerns the target T2, human amylin receptor (calcitonin receptor co-expressed with receptor activity modifying protein, RAMP3) (hAMYR3) (Homo sapiens, UniProt O60896+P30988).
T2 construct: expressed in transfected cells
T2 sequence (P30988 25-474): T1 sequence (P30988 25-474)
T2 sequence (O60896 24-148 partner): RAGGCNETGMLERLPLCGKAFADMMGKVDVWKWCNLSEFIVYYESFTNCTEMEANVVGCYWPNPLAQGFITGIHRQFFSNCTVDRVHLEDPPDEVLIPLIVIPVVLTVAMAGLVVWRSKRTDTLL
As to the kind of experiment: cAMP production in 1321N1 cells with stable recombinant expression of human amylin receptor (hAMYR3). Format: cell-based. The conditions noted are these: for Ratio (selectivity hAMYR vs hCTR, ratio of EC50 values at the two receptors): EC50 hCTR / EC50 hAMYR3; for EC50: cAMP, 1321N1 cells, assay buffer with 0.1% BSA, read-out: EC50 (pM) hAMYR3. Summed up: as §1

Molecules are shown by their SMILES. Numbered stars: 1 amine (or outer) side, 2 acyl side, 3 side chain; on linkers, the order of the positions; unused ones are H or OH. Bridge positions count the residues as written; N and C are the ends. Square brackets hold non-standard residues; d marks the D form. Side chains are listed from the residue outwards. Peptide text beside a SMILES is read from it. * marks the point of attachment. C18 diacid = O=C(O)CCCCCCCCCCCCCCCCC(=O)*; γGlu = O=C(O)[C@H](CCC(=O)[*:2])N[*:1]; αMeF = C[C@](N)(Cc1ccccc1)C(=O)O; Aib = CC(C)(N)C(=O)O

For `CC[C@H](C)[C@H](NC(=O)[C@@H]1CCCN1C(=O)CNC(=O)[C@H](Cc1ccccc1)NC(=O)[C@H](CC(N)=O)NC(=O)C(C)(C)NC(=O)[C@H](CO)NC(=O)[C@H](CO)NC(=O)[C@H](Cc1c[nH]cn1)NC(=O)[C@@H](NC(=O)[C@H](CC(C)C)NC(=O)[C@H](Cc1ccccc1)NC(=O)[C@H](Cc1c[nH]cn1)NC(=O)[C@H](C)NC(=O)[C@H](CC(C)C)NC(=O)[C@H](CCCNC(=N)N)NC(=O)[C@H](CCC(N)=O)NC(=O)[C@@H](NC(=O)[C@H](C)NC(=O)[C@@H]1CSSC[C@H](NC(=O)[C@H](CCCCN)NC(=O)[C@@H](N)CCCCNC(=O)CC[C@H](NC(=O)CCCCCCCCCCCCCCCCC(=O)O)C(=O)O)C(=O)N[C@@H](CC(N)=O)C(=O)N[C@@H]([C@@H](C)O)C(=O)N[C@@H](C)C(=O)N[C@@H]([C@@H](C)O)C(=O)N1)[C@@H](C)O)C(C)C)C(=O)N[C@@H](CC(C)C)C(=O)N1CCC[C@H]1C(=O)N1CCC[C@H]1C(=O)N[C@H](C(=O)N[C@@H](CC(N)=O)C(=O)N[C@H](C(=O)NCC(=O)N[C@@H](CO)C(=O)N[C@@H](CCC(=O)O)C(=O)N[C@H](C(=O)N[C@@H](Cc1ccc(O)cc1)C(N)=O)[C@@H](C)O)C(C)C)[C@@H](C)O` [Peptide 47, K(γE-C18diacid)K[CNTATC]ATQRLAHFLVHSS(Aib)NFGPILPPTNVGSETY-amide] (H-K([γGlu-C18 diacid])KCNTATCATQRLAHFLVHSS[Aib]NFGPILPPTNVGSETY-NH2; disulfide 3-8; N-terminus assumed), the EC50 in test [1] was found to be 468 pM. In test [2], the “Ratio (selectivity hAMYR vs hCTR, ratio of EC50 values at the two receptors)” value came to 2 and the EC50 was 218 pM.
Taken in the same sequence, the figures for `CC[C@H](C)[C@H](NC(=O)[C@@H]1CCCN1C(=O)CNC(=O)[C@H](Cc1ccccc1)NC(=O)[C@H](CC(N)=O)NC(=O)C(C)(C)NC(=O)[C@H](CO)NC(=O)[C@H](CO)NC(=O)[C@H](Cc1c[nH]cn1)NC(=O)[C@H](CO)NC(=O)[C@H](CC(C)C)NC(=O)[C@H](Cc1ccccc1)NC(=O)[C@H](CC(N)=O)NC(=O)[C@H](C)NC(=O)[C@H](CC(C)C)NC(=O)[C@H](CCCNC(=N)N)NC(=O)[C@H](CCC(N)=O)NC(=O)[C@@H](NC(=O)[C@H](C)NC(=O)[C@@H]1CSSC[C@H](NC(=O)[C@H](CCCCN)NC(=O)[C@@H](N)CCCCNC(=O)CC[C@H](NC(=O)CCCCCCCCCCCCCCCCC(=O)O)C(=O)O)C(=O)N[C@@H](CC(N)=O)C(=O)N[C@@H]([C@@H](C)O)C(=O)N[C@@H](C)C(=O)N[C@@H]([C@@H](C)O)C(=O)N1)[C@@H](C)O)C(=O)N[C@@H](CC(C)C)C(=O)N1CCC[C@H]1C(=O)N1CCC[C@H]1C(=O)N[C@H](C(=O)N[C@@H](CCCNC(=N)N)C(=O)N[C@H](C(=O)NCC(=O)N[C@@H](CO)C(=O)N[C@@H](CC(N)=O)C(=O)N[C@H](C(=O)N[C@@H](Cc1ccc(O)cc1)C(N)=O)[C@@H](C)O)C(C)C)[C@@H](C)O` [Peptide 52, K(γE-C18diacid)K[CNTATC]ATQRLANFLSHSS(Aib)NFGPILPPTRVGSNTY-amide] (H-K([γGlu-C18 diacid])KCNTATCATQRLANFLSHSS[Aib]NFGPILPPTRVGSNTY-NH2; disulfide 3-8; N-terminus assumed) were 1100 pM, 12 and 89 pM.
Taken in the same sequence, the figures for `CC[C@H](C)[C@H](NC(=O)[C@@H]1CCCN1C(=O)CNC(=O)[C@H](Cc1ccccc1)NC(=O)[C@H](CC(N)=O)NC(=O)C(C)(C)NC(=O)[C@H](CO)NC(=O)[C@H](CO)NC(=O)[C@H](Cc1c[nH]cn1)NC(=O)[C@H](CCCNC(=N)N)NC(=O)[C@H](CC(C)C)NC(=O)[C@H](Cc1ccccc1)NC(=O)[C@H](CC(N)=O)NC(=O)[C@H](C)NC(=O)[C@H](CC(C)C)NC(=O)[C@H](CCCNC(=N)N)NC(=O)[C@H](CCC(N)=O)NC(=O)[C@@H](NC(=O)[C@H](C)NC(=O)[C@@H]1CSSC[C@H](NC(=O)[C@@H](N)CCCCNC(=O)CC[C@H](NC(=O)CC[C@H](NC(=O)CCCCCCCCCCCCCCCCC(=O)O)C(=O)O)C(=O)O)C(=O)N[C@@H](CC(N)=O)C(=O)N[C@@H]([C@@H](C)O)C(=O)N[C@@H](C)C(=O)N[C@@H]([C@@H](C)O)C(=O)N1)[C@@H](C)O)C(=O)N[C@@H](CC(C)C)C(=O)N1CCC[C@H]1C(=O)N1CCC[C@H]1C(=O)N[C@H](C(=O)N[C@@H](CC(N)=O)C(=O)N[C@H](C(=O)NCC(=O)N[C@@H](CO)C(=O)N[C@@H](CC(N)=O)C(=O)N[C@H](C(=O)N[C@@H](Cc1ccc(O)cc1)C(N)=O)[C@@H](C)O)C(C)C)[C@@H](C)O` [Peptide 75, K(γE-γE-C18diacid)[CNTATC]ATQRLANFLRHSS(Aib)NFGPILPPTNVGSNTY-amide] (H-K([γGlu-γGlu-C18 diacid])CNTATCATQRLANFLRHSS[Aib]NFGPILPPTNVGSNTY-NH2; disulfide 2-7) were 16000 pM, 99 and 161 pM.
For `CC[C@H](C)[C@H](NC(=O)[C@@H]1CCCN1C(=O)CNC(=O)[C@](C)(Cc1ccccc1)NC(=O)[C@H](CC(N)=O)NC(=O)[C@H](CC(N)=O)NC(=O)[C@H](CO)NC(=O)[C@H](CO)NC(=O)[C@H](Cc1c[nH]cn1)NC(=O)C(C)(C)NC(=O)[C@H](CC(C)C)NC(=O)[C@H](Cc1ccccc1)NC(=O)[C@H](CC(N)=O)NC(=O)[C@H](C)NC(=O)[C@H](CC(C)C)NC(=O)[C@H](CCCNC(=N)N)NC(=O)[C@H](CCC(N)=O)NC(=O)[C@@H](NC(=O)[C@H](C)NC(=O)[C@@H]1CSSC[C@H](NC(=O)[C@@H](N)CCCCNC(=O)CC[C@H](NC(=O)CC[C@H](NC(=O)CCCCCCCCCCCCCCCCC(=O)O)C(=O)O)C(=O)O)C(=O)N[C@@H](CC(N)=O)C(=O)N[C@@H]([C@@H](C)O)C(=O)N[C@@H](C)C(=O)N[C@@H]([C@@H](C)O)C(=O)N1)[C@@H](C)O)C(=O)N[C@@H](CC(C)C)C(=O)N1CCC[C@H]1C(=O)N1CCC[C@H]1C(=O)N[C@H](C(=O)N[C@@H](CC(N)=O)C(=O)N[C@H](C(=O)NCC(=O)N[C@@H](CO)C(=O)N[C@@H](CC(N)=O)C(=O)N[C@H](C(=O)N[C@@H](Cc1ccc(O)cc1)C(N)=O)[C@@H](C)O)C(C)C)[C@@H](C)O` [Peptide 26, K(γE-γE-C18diacid)[CNTATC]ATQRLANFL(Aib)HSSNN(αMePhe)GPILPPTNVGSNTY-amide] (H-K([γGlu-γGlu-C18 diacid])CNTATCATQRLANFL[Aib]HSSNN[αMeF]GPILPPTNVGSNTY-NH2; disulfide 2-7), in test [1], the EC50 turned out to be 2800 pM. Moreover, in test [2], the “Ratio (selectivity hAMYR vs hCTR, ratio of EC50 values at the two receptors)” value stood at 7 and the EC50 is 409 pM.
Taken in the same sequence, the figures for `CC[C@H](C)[C@H](NC(=O)[C@@H]1CCCN1C(=O)CNC(=O)[C@H](Cc1ccccc1)NC(=O)[C@H](CC(N)=O)NC(=O)C(C)(C)NC(=O)[C@H](CO)NC(=O)[C@H](CO)NC(=O)[C@H](Cc1c[nH]cn1)NC(=O)[C@H](CO)NC(=O)[C@H](CC(C)C)NC(=O)[C@H](Cc1ccccc1)NC(=O)[C@H](CC(N)=O)NC(=O)[C@H](C)NC(=O)[C@H](CC(C)C)NC(=O)[C@H](CCCNC(=N)N)NC(=O)[C@H](CCC(N)=O)NC(=O)[C@@H](NC(=O)[C@H](C)NC(=O)[C@@H]1CSSC[C@H](NC(=O)[C@H](CCCCN)NC(=O)[C@@H](N)CCCCNC(=O)CC[C@H](NC(=O)CCCCCCCCCCCCCCCCC(=O)O)C(=O)O)C(=O)N[C@@H](CC(N)=O)C(=O)N[C@@H]([C@@H](C)O)C(=O)N[C@@H](C)C(=O)N[C@@H]([C@@H](C)O)C(=O)N1)[C@@H](C)O)C(=O)N[C@@H](CC(C)C)C(=O)N1CCC[C@H]1C(=O)N1CCC[C@H]1C(=O)N[C@H](C(=O)N[C@@H](CC(N)=O)C(=O)N[C@H](C(=O)NCC(=O)N[C@@H](CO)C(=O)N1CCC[C@H]1C(=O)N[C@H](C(=O)N[C@@H](Cc1ccc(O)cc1)C(N)=O)[C@@H](C)O)C(C)C)[C@@H](C)O` [Peptide 55, K(γE-C18diacid)K[CNTATC]ATQRLANFLSHSS(Aib)NFGPILPPTNVGSPTY-amide] (H-K([γGlu-C18 diacid])KCNTATCATQRLANFLSHSS[Aib]NFGPILPPTNVGSPTY-NH2; disulfide 3-8) were 1870 pM, 3 and 678 pM.

For orientation: EC50 means the concentration needed to bring the measured effect to its halfway point.

These data come from patent publication US20240067693A1, “POLYPEPTIDES AND USES THEREOF” (MEDIMMUNE LIMITED, priority 2020, published 2024).
